Results taken from PubChem BioAssay (NCI).
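Protocol summary: plate cells (96-well), add compound at 5 concentrations, incubate 48 h, interpolate endpoints linearly. GI50 marks 50% less growth. The concentration for full growth arrest is given as TGI.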

How the values were obtained:
Test in all cases: growth of human tumour cells (NCI), 48 h
786-0 renal = system: 786-0 renal
A498 renal = system: A498 renal
ACHN renal = system: ACHN renal
BT-549 breast = system: BT-549 breast
CAKI-1 renal = system: CAKI-1 renal
CCRF-CEM leukemia = system: CCRF-CEM leukemia
COLO 205 colon = system: COLO 205 colon
DU-145 prostate = system: DU-145 prostate
EKVX NSCLC = system: EKVX NSCLC
HCC-2998 colon = system: HCC-2998 colon
HCT-116 colon = system: HCT-116 colon
HCT-15 colon = system: HCT-15 colon
HL-60(TB) leukemia = system: HL-60(TB) leukemia
HOP-62 NSCLC = system: HOP-62 NSCLC
HOP-92 NSCLC = system: HOP-92 NSCLC
HS 578T breast = system: HS 578T breast
HT29 colon = system: HT29 colon
IGROV1 ovarian = system: IGROV1 ovarian
K-562 leukemia = system: K-562 leukemia
KM12 colon = system: KM12 colon
LOX IMVI melanoma = system: LOX IMVI melanoma
M14 melanoma = system: M14 melanoma
MALME-3M melanoma = system: MALME-3M melanoma
MCF7 breast = system: MCF7 breast
MDA-MB-231 breast = system: MDA-MB-231 breast
MDA-MB-435 = system: MDA-MB-435
MOLT-4 leukemia = system: MOLT-4 leukemia
NCI-H226 lung = system: NCI-H226 lung
NCI-H23 lung = system: NCI-H23 lung
NCI-H460 lung = system: NCI-H460 lung
NCI-H522 lung = system: NCI-H522 lung
NCI/ADR-RES ovarian = system: NCI/ADR-RES ovarian
OVCAR-3 ovarian = system: OVCAR-3 ovarian
OVCAR-4 ovarian = system: OVCAR-4 ovarian
OVCAR-5 ovarian = system: OVCAR-5 ovarian
OVCAR-8 ovarian = system: OVCAR-8 ovarian
PC-3 prostate = system: PC-3 prostate
RPMI-8226 leukemia = system: RPMI-8226 leukemia
RXF 393 renal = system: RXF 393 renal
SF-268 CNS = system: SF-268 CNS
SF-295 CNS = system: SF-295 CNS
SF-539 CNS = system: SF-539 CNS
SK-MEL-2 melanoma = system: SK-MEL-2 melanoma
SK-MEL-28 melanoma = system: SK-MEL-28 melanoma
SK-MEL-5 melanoma = system: SK-MEL-5 melanoma
SK-OV-3 ovarian = system: SK-OV-3 ovarian
SN12C renal = system: SN12C renal
SNB-19 CNS = system: SNB-19 CNS
SNB-75 CNS = system: SNB-75 CNS
SR leukemia = system: SR leukemia
SW-620 colon = system: SW-620 colon
T-47D breast = system: T-47D breast
TK-10 renal = system: TK-10 renal
U251 CNS = system: U251 CNS
UACC-257 melanoma = system: UACC-257 melanoma
UACC-62 melanoma = system: UACC-62 melanoma
UO-31 renal = system: UO-31 renal

CC(=O)[O][Hg][c]1ccccc1
GI50 (786-0 renal): 1.43 µM
TGI (786-0 renal): 2.82 µM
GI50 (A498 renal): 1.11 µM
TGI (A498 renal): 2.37 µM
GI50 (ACHN renal): 1.23 µM
TGI (ACHN renal): 2.61 µM
GI50 (BT-549 breast): 0.453 µM
TGI (BT-549 breast): 1.66 µM
GI50 (CAKI-1 renal): 0.964 µM
TGI (CAKI-1 renal): 2.89 µM
GI50 (CCRF-CEM leukemia): 0.147 µM
TGI (CCRF-CEM leukemia): 0.494 µM
GI50 (COLO 205 colon): 0.65 µM
TGI (COLO 205 colon): 1.67 µM
GI50 (DU-145 prostate): 1.25 µM
TGI (DU-145 prostate): 2.72 µM
GI50 (EKVX NSCLC): 1.46 µM
TGI (EKVX NSCLC): 3.98 µM
GI50 (HCC-2998 colon): 1.64 µM
TGI (HCC-2998 colon): 3.11 µM
GI50 (HCT-116 colon): 0.264 µM
TGI (HCT-116 colon): 0.667 µM
GI50 (HCT-15 colon): 0.277 µM
TGI (HCT-15 colon): 0.877 µM
GI50 (HL-60(TB) leukemia): 0.201 µM
TGI (HL-60(TB) leukemia): 0.487 µM
GI50 (HOP-62 NSCLC): 1.62 µM
TGI (HOP-62 NSCLC): 3.11 µM
GI50 (HOP-92 NSCLC): 0.299 µM
TGI (HOP-92 NSCLC): 0.92 µM
GI50 (HS 578T breast): 0.289 µM
TGI (HS 578T breast): 1.67 µM
GI50 (HT29 colon): 0.626 µM
TGI (HT29 colon): 2.46 µM
GI50 (IGROV1 ovarian): 0.295 µM
TGI (IGROV1 ovarian): 0.934 µM
GI50 (K-562 leukemia): 0.294 µM
TGI (K-562 leukemia): 1.31 µM
GI50 (KM12 colon): 1.6 µM
TGI (KM12 colon): 3.04 µM
GI50 (LOX IMVI melanoma): 0.227 µM
TGI (LOX IMVI melanoma): 0.696 µM
GI50 (M14 melanoma): 0.283 µM
TGI (M14 melanoma): 1.06 µM
GI50 (MALME-3M melanoma): 0.506 µM
TGI (MALME-3M melanoma): 1.62 µM
GI50 (MCF7 breast): 0.197 µM
TGI (MCF7 breast): 0.684 µM
GI50 (MDA-MB-231 breast): 0.732 µM
TGI (MDA-MB-231 breast): 2.09 µM
GI50 (MDA-MB-435): 0.808 µM
TGI (MDA-MB-435): 2.19 µM
GI50 (MOLT-4 leukemia): 0.19 µM
TGI (MOLT-4 leukemia): 0.551 µM
GI50 (NCI-H226 lung): 1.12 µM
TGI (NCI-H226 lung): 4.81 µM
GI50 (NCI-H23 lung): 0.682 µM
TGI (NCI-H23 lung): 3.46 µM
GI50 (NCI-H460 lung): 0.934 µM
TGI (NCI-H460 lung): 3.82 µM
GI50 (NCI-H522 lung): 0.138 µM
TGI (NCI-H522 lung): 0.292 µM
GI50 (NCI/ADR-RES ovarian): 1.7 µM
TGI (NCI/ADR-RES ovarian): 5.74 µM
GI50 (OVCAR-3 ovarian): 0.147 µM
TGI (OVCAR-3 ovarian): 0.295 µM
GI50 (OVCAR-4 ovarian): 0.43 µM
TGI (OVCAR-4 ovarian): 2.24 µM
GI50 (OVCAR-5 ovarian): 2.19 µM
TGI (OVCAR-5 ovarian): 3.84 µM
GI50 (OVCAR-8 ovarian): 0.921 µM
TGI (OVCAR-8 ovarian): 3.96 µM
GI50 (PC-3 prostate): 1.41 µM
TGI (PC-3 prostate): 3.21 µM
GI50 (RPMI-8226 leukemia): 0.283 µM
TGI (RPMI-8226 leukemia): 1.3 µM
GI50 (RXF 393 renal): 0.234 µM
TGI (RXF 393 renal): 0.797 µM
GI50 (SF-268 CNS): 1.14 µM
TGI (SF-268 CNS): 2.64 µM
GI50 (SF-295 CNS): 1.61 µM
TGI (SF-295 CNS): 3.57 µM
GI50 (SF-539 CNS): 1.42 µM
TGI (SF-539 CNS): 2.83 µM
GI50 (SK-MEL-2 melanoma): 0.401 µM
TGI (SK-MEL-2 melanoma): 1.27 µM
GI50 (SK-MEL-28 melanoma): 0.383 µM
TGI (SK-MEL-28 melanoma): 1.47 µM
GI50 (SK-MEL-5 melanoma): 0.472 µM
TGI (SK-MEL-5 melanoma): 1.82 µM
GI50 (SK-OV-3 ovarian): 1.37 µM
TGI (SK-OV-3 ovarian): 2.68 µM
GI50 (SN12C renal): 0.234 µM
TGI (SN12C renal): 0.644 µM
GI50 (SNB-19 CNS): 1.46 µM
TGI (SNB-19 CNS): 3.05 µM
GI50 (SNB-75 CNS): 0.771 µM
TGI (SNB-75 CNS): 2.2 µM
GI50 (SR leukemia): 0.143 µM
TGI (SR leukemia): 0.537 µM
GI50 (SW-620 colon): 0.215 µM
TGI (SW-620 colon): 0.492 µM
GI50 (T-47D breast): 0.163 µM
TGI (T-47D breast): 0.382 µM
GI50 (TK-10 renal): 0.512 µM
TGI (TK-10 renal): 1.36 µM
GI50 (U251 CNS): 0.453 µM
TGI (U251 CNS): 1.75 µM
GI50 (UACC-257 melanoma): 0.908 µM
TGI (UACC-257 melanoma): 2.18 µM
GI50 (UACC-62 melanoma): 0.587 µM
TGI (UACC-62 melanoma): 1.91 µM
GI50 (UO-31 renal): 1.23 µM
TGI (UO-31 renal): 2.54 µM
